Experimental findings from paper PMC11212140, “Molecular Bidents with Two Electrophilic Warheads as a New Pharmacological Modality” (ACS Central Science, 2024) are described below.

One data set relates to T1, PRP4.
T1 construct: purchased ActivX Biosciences (KiNativ)
Kind of data set: KiNativ profiling in H3255 cells. The format is cell-based, human. The note with it: 2.5 µM; Lys2; CNILHADIKPDNILVNESK

For data set [1], the system named is phosphorylation of EGFR, ERK1/2, and AKT. The data set can be described thus: Immunoblot of EGFR signaling pathway in H3255 cells. It is filed as cell-based, human. The settings on record: H3255, 6 h treatment. How it is done: (A) Dose–response curves for ZNL-0056 and osimertinib in H3255 cells following 72 h of treatment. Cell viability was assessed with CellTiter-Glo. Data are presented as the mean ± SEM (n = 4). Representative data from three independent experiments are shown. (B) Immunoblot assessment of the effect of ZNL-0056 on EGFR signaling pathway in H3255 cells after 6 h treatment. Representative blots from two independent experiments are shown. […] TEXT PRINTED IN THE PICTURE: (A) ZNL-0056: H3255: IC50 (nM): 471.3 | (A) Osimertinib: H3255: IC50 (nM): 27.76 […]
(§1) For infection of Ba/F3 cells, 2.5 mL of viral supernatant and 8 μg/mL polybrene was added to 2.5 million cells per well in six-well plates. The plate was centrifuged at 2500 rpm for 90 minutes at 37 °C for the spin infection. […]
(§2) Cells were lysed in RIPA buffer (150 mM NaCl, 1.0% IGEPAL® CA-630, 0.5% sodium deoxycholate, 0.1% SDS, 50 mM Tris, pH 8.0) (Sigma, Cat# R0278) with protease inhibitor and phosphatase inhibitor (Roche). The protein concentrations were measured by BCA analysis (Thermo Fisher Scientific, Cat # PI23225). […]
(§3) or IRDye 680RD goat anti-Mouse IgG (LICOR Biosciences , Cat # 926-68070) secondary antibodies at room temperature for 1 hour. The membranes were detected on Odyssey CLx system. […]

Data set [2] deals with EGFR, ERK1/2, and Akt phosphorylation. The data set can be described thus: Immunoblot of EGFR signaling pathway in EGFR-mutated Ba/F3 cells. The note with it: EGFR^L858R, EGFR^L858R/C797S and EGFR^L858R/C775S Ba/F3 cells, 6 h. The format is cell-based. How it is done: Figure 5 ZNL-0056 covalently engages Cys775 and Cys797 in EGFR Ba/F3 cells. (A) The average IC50 values (mean ± S.D.) of the indicated compounds in EGFR^L858R Ba/F3, EGFR^L858R/C797S Ba/F3, and EGFR^L858R/C775S Ba/F3 cells after […] treatment. The graph was generated from three independent experiments, each performed with four replicates. (B) Immunoblot assessment of the effect of ZNL-0056 on the EGFR signaling pathway in EGFR^L858R Ba/F3, EGFR^L858R/C797S Ba/F3, and EGFR^L858R/C775S Ba/F3 cells after 6 h treatment. Representative data from two independent experiments are shown.
as §1, §2, §3

A further data set deals with T2, MKK7 (Homo sapiens, UniProt O14733).
T2 construct: purchased DiscoverX
T2 sequence (O14733 1-419): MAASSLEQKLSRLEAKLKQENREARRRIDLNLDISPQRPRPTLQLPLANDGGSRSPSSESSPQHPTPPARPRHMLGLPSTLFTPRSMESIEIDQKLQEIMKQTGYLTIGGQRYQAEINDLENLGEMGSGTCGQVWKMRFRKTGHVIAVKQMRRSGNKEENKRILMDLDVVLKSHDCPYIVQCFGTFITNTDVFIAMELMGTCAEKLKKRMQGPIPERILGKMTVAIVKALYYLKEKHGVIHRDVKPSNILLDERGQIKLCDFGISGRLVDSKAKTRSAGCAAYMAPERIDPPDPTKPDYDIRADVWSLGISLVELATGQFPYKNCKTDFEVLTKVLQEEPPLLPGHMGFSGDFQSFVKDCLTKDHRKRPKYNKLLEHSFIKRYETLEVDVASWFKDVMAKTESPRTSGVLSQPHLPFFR
Kind of data set: MKK7 binding, KdELECT assays (DiscoverX). The note with it: KdELECT. The text has this: Figure 2 ZNL-8162 is a molecular bident for MKK7. (A) Compound structures for MKK7-targeting molecular bident (ZNL-8162) and its relatives lacking one or both cysteine-reactive groups. (B) Covalent modeling for ZNL-8162 engagement of MKK7(PDB: 6YG3). (C) MS/MS spectrum of ZNL-8162 covalently modifying Cys218 and Cys276 of MKK7. Red and yellow circles indicate ions of type y for sequences marked (1) and (2), respectively. Blue circles indicate ions of b for sequence (1). *, carbamidomethyl cysteine, Δ, oxidized methionine. (D) MKK7 binding data were obtained from KdELECT assays (DiscoverX). Data are presented as mean ± s.d. of n = 2 biologically independent samples.
Table S2. […]

The nature of data set [3]: In vivo pharmacokinetics in mice. The settings on record: male C57BL/6 mice. As for the experimental part:
To address this question, we tested the GSH reactivity of ZNL-0056 (Table S3) and its in vivo pharmacokinetic (PK) properties using three routes of administration including: 1 mg/kg IV, 3 mg/kg IP, and 10 mg/kg PO in male C57BL/6 mice (Table S4).
Table S4. Effect of ZNL-0056 in vivo- PK Parameters
Dose: 1mg/Kg IV, 3mg/Kg IP, 10mg/Kg PO. Formulation: 0.1mg/mL(IV) and 0.3mg/mL (IP)
and 1mg/mL (PO) solution in 5/25/70 EtOH/PEG300/D5W. […]

Structures are written as SMILES.

The term Inhibition denotes the drop in the measured response relative to a control, in per cent. For orientation: Kd means the concentration at which binding is half-saturated. In general, half-life refers to how long it takes for the measured level to halve. The low end stands for fast loss, the high end for slow loss. What is called bioavailability is dose-corrected exposure relative to a reference, in per cent. Read a high bioavailability as good availability.

Take `C=CC(=O)Nc1cc(Nc2nccc(-c3cn(C)c4ccccc34)n2)c(OC)cc1N(C)CCN(C)C` [Osimertinib, osimertinib, reference compound]: the Inhibition with PRP4 is -3.8%.
For `C=CC(=O)Nc1cc(C(=O)Nc2nc3cccc(C)c3n2[C@@H]2CCCCN(C(=O)C=C)C2)cs1` [ZNL-0056], the “concentration inhibiting phosphorylation of EGFR, ERK1/2, and AKT (as low as)” value in data set [1] stood at 0.1 µM. Further, the “inhibition of EGFR, ERK1/2, and Akt phosphorylation” value in data set [2] is given as “significantly inhibited”. The molecule also showed a Kd at MKK7 of 36 nM. Moreover, the “area under the curve” value is 21 820 min·ng/mL in data set [3] (1 mg/kg IV) and 63 341 min·ng/mL in data set [3] (10 mg/kg PO). Also, the “average maximal plasma concentration” value in data set [3] (3 mg/kg IP) amounted to 1.3 µmol/L; in data set [3] (10 mg/kg PO), 1.4 µmol/L. The molecule further gave a half-life in data set [3] (mouse, plasma, 1 mg/kg IV) of 19.8 min. In data set [3] (mouse, plasma, 10 mg/kg PO), this molecule came in with a bioavailability of 24%.
